Experimental data taken from US8367831B2, “Heterocyclic compound or salt thereof and intermediate thereof” (priority 2006, dated 2013).
In brackets after ≈: the same amount, converted by molar mass. Structures can show the parent of a compound that is named as a salt. Where two headings read alike, the source gives them in different places. Values belong to the compound of their own block, whether it stands above or below them.

How the values were obtained:
[1] = Safety (general statement); settings: qualitative statement, no comparator named
Excerpt: The compound of the general formula [1] of the present invention has excellent safety. The safety can be evaluated by various tests, for example, by various types of safety tests selected from a cytotoxicity test, a selectivity test against DNA gyrase of human and various bacteria, a selectivity test against topoisomerase IV of human and various bacteria, an hERG test, a repeat-dose toxicity test, a cytochrome P450 (CYP) activity inhibition test, a metabolic dependence inhibition test, an in vivo mouse micronucleus test, an in vivo rat liver UDS test, and the like.

[2] = Antimicrobial activity (general statement); settings: qualitative statement, no comparator named
[3] = Metabolic stability (general statement); type: in vitro ADME; settings: qualitative statement, no comparator named
Excerpt: The compound of the general formula [1] of the present invention has excellent metabolic stability. The metabolic stability can be evaluated by various tests, for example, by various types of stability tests selected from a human liver microsome metabolic stability test, a human S9 stability test, and the like.

[4] = Tissue distribution (general statement); settings: qualitative statement, no comparator named
[5] = tested on: Staphylococcus aureus (S. aureus Smith); assay: S. aureus infection experiment in mice; type: in vivo; settings: ICR mice, five per group, intraperitoneal infection, 1 hour after infection
Procedure: ICR mice (male, SPF grade, 4-week old, five mice per group) were used. A bacterial inoculum was prepared by suspending Staphylococcus aureus (S. aureus
Smith), which was cultured on a Mueller-Hinton agar plate at 37° C. overnight, in sterile physiological saline, preparing a bacterial solution of about 4×10^8 CFU/mL, and diluting the solution 10-fold in 5.6% mucin-phosphate buffer. ICR mice were intraperitoneally administered with the bacterial inoculum (approximately 2×10^7 CFU/mouse) to induce infection. Test substances were dissolved in 10% hydroxypropyl-β-cyclodextrin and 0.05 mol/L hydrochloric acid. […] The number of surviving mice was recorded on 5 days after the infection.

[6] = tested on: S. aureus FDA209P; assay: Susceptibility test 1: MIC by micro-dilution method; type: cell-based; settings: Staphylococcus aureus, read-out: MIC (μg/mL) S. aureus FDA209P
Procedure: (§1) Test substances were initially dissolved in dimethylsulfoxide. Antibacterial activities (MICs) of the same compounds were determined by the micro-dilution method as recommended by the Japanese Society of Chemotherapy.
(§2) The bacteria cultured on Mueller-Hinton agar (MHA) plates at 35° C. overnight were suspended in sterile physiological saline in a concentration that was equivalent to 0.5 McFarland. The bacterial inoculum was prepared by 10-fold dilution of this suspension. Approximately 0.005 mL of the bacterial inoculum was inoculated into Cation-adjusted Mueller-Hinton broth (CAMHB, 100 μL/well) containing the test substance and was incubated at 35° C. overnight. The lowest concentration of the test substance at which no bacterial growth was macroscopically observed was determined as the MIC.

[7] = tested on: S. aureus F-3095; assay: as above; type: cell-based; settings: Staphylococcus aureus
Procedure: as §1, §2

[8] = Cytotoxicity test (XTT); type: cell-based; settings: African green monkey, vero cells, 3 days incubation, absorbance 450 nm, read-out: CC50 (concentration when cell proliferation was inhibited by 50%)
Procedure: Each test substance was dissolved in dimethyl sulfoxide and was prepared to each concentration with E-MEM containing 10% FBS, and then 0.1 mL of this solution was dispensed into each well of a 96-well microplate. A vero cell suspension containing 3×10^4 cells/mL was prepared with E-MEM containing 10% FBS, and 0.1 mL of the suspension was inoculated to each well. After incubation in 5% CO2 at 37° C. for 3 days, 50 μL of E-MEM containing 1 mg/mL of 2,3-bis-(2-methoxy-4-nitro-5-sulfophenyl)-5-[(phenylamino)carbonyl]-2H-tetrazolium, inner salt, monosodium salt (XTT) and 25 μM of phenazine methosulfate (PMS) was added to each well. After about 2 hours, the absorbance at 450 nm was measured with a microplate reader.
The absorbance ratio of each well supplied with the test substance and the control not containing the test substance was calculated, and the concentration of each compound when cell proliferation was inhibited by 50% (CC50; μg/mL) was calculated.

[9] = Hygroscopicity of the salt (statement); type: physicochemical; settings: trihydrochloride salt
[10] = F3095, read-out: MIC (μg/mL) S. aureus F-3095
[11] = CAMHB, 35° C. overnight, lowest concentration with no macroscopic growth
[12] = F3095, F-3095 (MDRSA), CAMHB, 35° C. overnight, lowest concentration with no macroscopic growth, read-out: MIC (μg/mL) S. aureus F-3095

Structure (SMILES): COc1cnc2ccc(=O)n(CCN3CCC(NCc4cc5c(cn4)OCCO5)CC3)c2n1 [Example 85, 5-(2-(4-((2,3-dihydro(1,4)dioxino(2,3-c)pyridin-7-ylmethyl)amino)piperidin-1-yl)ethyl-3-methoxypyrido(2,3-b)pyrazin-6(5H)-one hydrochloride]
safety [1]: higher
antimicrobial activity [2]: higher
metabolic stability [3]: higher
tissue distribution [4]: higher
number of surviving mice on 5 days after the infection ([5]; 1 mg/kg subcutaneously once): four mice out of five
MIC [6]: 0.0313 µg/mL
MIC [7, 10]: 0.0313 µg/mL
CC50 at 3 days [8]: ≥ 51.2 µg/mL

Structure (SMILES): COc1cnc2ccc(=O)n(CCN3CCC(NCc4cc(-c5ccco5)on4)CC3)c2c1 [Example 140, 1-(2-(4-(((5-(2-furyl)isoxazol-3-yl)methyl)amino)piperidin-1-yl)ethyl)-7-methoxy-1,5-naphthyridin-2(1H)-one]
number of surviving mice on 5 days after the infection ([5]; 3 mg/kg subcutaneously once): all mice
MIC [6, 11]: 0.0156 µg/mL (≈ 0.0347 µM)
MIC [7, 12]: 0.0156 µg/mL (≈ 0.0347 µM)

Structure (SMILES): O=c1ccc2ncc(F)cc2n1CCN1CCC(NCc2cc3c(cn2)OCCC3)CC1 [Example 103, 1-(2-(4-((3,4-dihydro-2H-pyrano(2,3-c)pyridin-6-ylmethyl)amino)piperidin-1-yl)ethyl)-7-fluoro-1,5-naphthyridin-2(1H)-one hydrochloride]
number of surviving mice on 5 days after the infection ([5]; 3 mg/kg subcutaneously once): all mice
MIC [6]: 0.0625 µg/mL
MIC [7, 10]: 0.0625 µg/mL
CC50 at 3 days [8]: ≥ 51.2 µg/mL

Structure (SMILES): COc1cnc2c(C)cc(=O)n(CCN3CCC(NCc4cc5c(cn4)OCCO5)CC3)c2c1 [Example 149, 1-(2-(4-((2,3-dihydro(1,4)dioxino(2,3-c)pyridin-7-ylmethyl)amino)piperidin-1-yl)ethyl)-7-methoxy-4-methyl-1,5-naphthyridin-2(1H)-one hydrochloride]
number of surviving mice on 5 days after the infection ([5]; 3 mg/kg subcutaneously once): all mice
MIC [6]: 0.0313 µg/mL
MIC [7, 10]: 0.0313 µg/mL

Structure (SMILES): COc1cnc2ncc(=O)n(CCN3CCC(NCc4cc5c(cn4)OCCO5)CC3)c2c1 [Example 68, 1-(2-(4-((2,3-dihydro(1,4)dioxino(2,3-c)pyridin-7-ylmethyl)amino)piperidin-1-yl)ethyl)-7-methoxypyrido(2,3-b)pyrazin-2(1H)-one hydrochloride]
number of surviving mice on 5 days after the infection ([5]; 3 mg/kg subcutaneously once): all mice
CC50 at 3 days [8]: ≥ 51.2 µg/mL

Structure (SMILES): COc1cnc2ccc(=O)n(CCN3CCC(NCc4cc5c(cn4)OCCO5)CC3)c2c1 [Example 2, 1-(2-(4-((2,3-dihydro(1,4)dioxino(2,3-c)pyridin-7-ylmethyl)amino)piperidin-1-yl)ethyl)-7-methoxy-1,5-naphthyridin-2(1H)-one hydrochloride]
safety [1]: higher
antimicrobial activity [2]: higher
metabolic stability [3]: higher
tissue distribution [4]: higher
number of surviving mice on 5 days after the infection ([5]; 3 mg/kg subcutaneously once): all mice
MIC [6]: 0.0313 µg/mL
MIC [7, 10]: 0.0313 µg/mL
CC50 at 3 days [8]: ≥ 51.2 µg/mL

Structure (SMILES): COc1cnc2ccc(=O)n(CCN3CCC(NCc4cnc(C)c(F)c4)CC3)c2c1 [Example 93, 1-(2-(4-(((5-fluoro-6-methylpyridin-3-yl)methyl)amino)piperidin-1-yl)ethyl)-7-methoxy-1,5-naphthyridin-2(1H)-one]
number of surviving mice on 5 days after the infection ([5]; 3 mg/kg subcutaneously once): all mice
MIC [6, 11]: 0.0625 µg/mL (≈ 0.147 µM)
MIC [7, 12]: 0.0313 µg/mL (≈ 0.0736 µM)
CC50 at 3 days [8]: ≥ 51.2 µg/mL

Structure (SMILES): COc1ccc2ncc(=O)n(CCN3CCC(NCc4cc5c(cn4)OCCO5)CC3)c2n1 [Example 10, 4-(2-(4-((2,3-dihydro(1,4)dioxino(2,3-c)pyridin-7-ylmethyl)amino)piperidin-1-yl)ethyl)-6-methoxypyrido(2,3-b)pyrazin-3(4H)-one hydrochloride]
MIC [6]: 0.0156 µg/mL
MIC [7, 10]: 0.0156 µg/mL
CC50 at 3 days [8]: ≥ 51.2 µg/mL

Structure (SMILES): Cl.Cl.Cl.O=c1ccc2ncc(F)cc2n1CCN1CCC(NCc2cc3c(cn2)OCCO3)CC1 [1-(2-(4-((2,3-dihydro(1,4)dioxino(2,3-c)pyridin-7-ylmethyl)amino)piperidin-1-yl)ethyl)-7-fluoro-1,5-naphthyridin-2(1H)-one trihydrochloride]
hygroscopicity [9]: nonhygroscopic

Structure (SMILES): O=c1ccc2ncc(F)cc2n1CCN1CCC(NCc2cc3c(cn2)OCCO3)CC1 [Example 4, 1-(2-(4-((2,3-dihydro(1,4)dioxino(2,3-c)pyridin-7-ylmethyl)amino)piperidin-1-yl)ethyl)-7-fluoro-1,5-naphthyridin-2(1H)-one hydrochloride]
safety [1]: higher
antimicrobial activity [2]: higher
metabolic stability [3]: higher
tissue distribution [4]: higher
number of surviving mice on 5 days after the infection ([5]; 3 mg/kg subcutaneously once): all mice
MIC [6]: 0.0313 µg/mL
MIC [7, 10]: 0.0313 µg/mL
CC50 at 3 days [8]: ≥ 51.2 µg/mL

Structure (SMILES): COc1cnc2ccc(=O)n(CCN3CCC(NCc4ccc5c(n4)NC(=O)CO5)CC3)c2c1 [Example 79, 1-(2-(4-((3-oxo-3,4-dihydro-2H-pyrido(3,2-b)(1,4)oxazin-6-yl)methylamino)piperidin-1-yl)ethyl)-7-methoxy-1,5-naphthyridin-2(1H)-one hydrochloride]
MIC [6]: 0.0078 µg/mL
MIC [7, 10]: 0.0156 µg/mL
CC50 at 3 days [8]: ≥ 51.2 µg/mL

Structure (SMILES): COc1cnc2ccc(=O)n(CCC3(O)CCC(NCc4cc5c(cn4)OCCO5)CC3)c2n1 (stereo not shown) [Example 119B, 5-(2-(4-((2,3-dihydro(1,4)dioxino(2,3-c)pyridin-7-ylmethyl)amino)-1-hydroxycyclohexyl)ethyl)-3-methoxypyrido(2,3-b)pyrazin-6(5H)-one]
number of surviving mice on 5 days after the infection ([5]; 3 mg/kg subcutaneously once): all mice
MIC [6, 11]: 0.0625 µg/mL (≈ 0.134 µM)
MIC [7, 12]: 0.0625 µg/mL (≈ 0.134 µM)

Structure (SMILES): O=c1ccc2ncc(OC(F)F)cc2n1CCN1CCC(NCc2cc3c(cn2)OCCO3)CC1 [Example 151, 7-(difluoromethoxy)-1-(2-(4-((2,3-dihydro(1,4)dioxino(2,3-c)pyridin-7-ylmethyl)amino)piperidin-1-yl)ethyl)-1,5-naphthyridin-2(1H)-one hydrochloride]
number of surviving mice on 5 days after the infection ([5]; 3 mg/kg subcutaneously once): all mice
MIC [6]: 0.0313 µg/mL
MIC [7, 10]: 0.125 µg/mL

MIC [6, 11]: 0.0039 µg/mL (≈ 0.0081 µM)
MIC [7, 12]: 0.0078 µg/mL (≈ 0.0162 µM)
Structure (SMILES): COc1ccc2ncc(=O)n(CCN3CCC(NCc4ccc5c(n4)NC(=O)CS5)CC3)c2n1 [Example 55, 6-(((1-(2-(6-methoxy-3-oxopyrido(2,3-b)pyrazin-4(3H)-yl)ethyl)piperidin-4-yl)amino)methyl)-2H-pyrido(3,2-b)(1,4)thiazin-3(4H)-one]
CC50 at 3 days [8]: ≥ 51.2 µg/mL

Structure (SMILES): O=c1ccc2ncc(Cl)cc2n1CCN1CCC(NCc2cc3c(cn2)OCCO3)CC1 [Example 77, 7-chloro-1-(2-(4-((2,3-dihydro(1,4)dioxino(2,3-c)pyridin-7-ylmethyl)amino)piperidin-1-yl)ethyl)-1,5-naphthyridin-2(1H)-one hydrochloride]
safety [1]: higher
antimicrobial activity [2]: higher
metabolic stability [3]: higher
tissue distribution [4]: higher
number of surviving mice on 5 days after the infection ([5]; 3 mg/kg subcutaneously once): all mice
MIC [6]: 0.0313 µg/mL
MIC [7, 10]: 0.0625 µg/mL
CC50 at 3 days [8]: ≥ 51.2 µg/mL
